Laboratory results taken from US20230085307A1, “PYRIDAZINONE COMPOUND AND HERBICIDE” (NISSAN CHEMICAL CORPORATION, priority 2019, published 2023).

Experiments:
wild oat [1] = assay: Test Example 4: herbicidal effect by soil treatment (Table 19, symbol I); type: in vivo, wild oat (Avena fatua); conditions: amount of applied herbicide 320 g/ha
Summary of the method: (§1)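 In this soil treatment, the formulated compound reached the seeds only through the soil: seeds were buried about 1.5 cm deep in sterilized diluvial soil, then the diluted emulsion was sprayed over the surface. After three weeks at 25° C. to 30° C. in a greenhouse, effects were graded on criteria from an earlier test.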

late watergrass = assay: Test Example 1: herbicidal activity, application before weed generation under submerged conditions (Table 16, symbol A); type: in vivo, late watergrass (Echinochloa oryzicola); conditions: 320 g/ha applied herbicide
Summary of the method: (§2)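 Emulsion formulation, water-diluted to set dose, was put onto the flooded surface (4 cm depth, alluvial soil) the same day weeds were sown and 2.5-leaf rice transplanted. After 3 weeks at 25-30 °C under glass, each species was rated 0 (≤5% kill) to 5 (≥90% kill).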

blackgrass [2] = assay: Test Example 4: herbicidal effect by soil treatment (Table 19, symbol J); type: in vivo, blackgrass (Alopecurus myosuroides); conditions: amount of applied herbicide 320 g/ha
Summary of the method: as §1

lambsquarters [3] = assay: Test Example 5: herbicidal effect by foliage application, plastic box (Table 20, symbol O); type: in vivo, lambsquarters (Chenopodium album); conditions: foliage application, 320 g/ha, three weeks after application
Summary of the method: (§3)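 Plants were sown into sterilized diluvial soil under about 1.5 cm cover and kept in a greenhouse at 25° C. to 30° C. Fourteen days on, foliage received an even spray of the diluted emulsion. Herbicidal or crop effect was judged three weeks afterwards.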

Chinese sprangletop = assay: Test Example 3: herbicidal effect by foliage application, Wagner pot (Table 18, symbol D); type: in vivo, chinese sprangletop (Leptochloa chinensis); conditions: 320 g/ha
Summary of the method: (§4)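 Plants were sown in alluvial soil held under 0.1–0.5 cm standing water and grown 14 days in a greenhouse at 25–30 °C. An emulsifiable formulation, water-diluted to the set dose, was then sprayed onto the foliage, and effects were scored three weeks later using previously defined criteria.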

blackgrass [4] = assay: Test Example 5: herbicidal effect by foliage application, plastic box (Table 20, symbol J); type: in vivo, blackgrass (Alopecurus myosuroides); conditions: foliage application, 320 g/ha, three weeks after application
Summary of the method: as §3

barnyard grass [5] = assay: Test Example 3: herbicidal effect by foliage application, Wagner pot (Table 18, symbol H); type: in vivo, barnyard grass (Echinochloa crus-galli); conditions: 320 g/ha
Summary of the method: as §4

barnyard grass [6] = assay: Test Example 4: herbicidal effect by soil treatment (Table 19, symbol H); type: in vivo, barnyard grass (Echinochloa crus-galli); conditions: amount of applied herbicide 320 g/ha
Summary of the method: as §1

wild oat [7] = assay: Test Example 5: herbicidal effect by foliage application, plastic box (Table 20, symbol I); type: in vivo, wild oat (Avena fatua); conditions: foliage application, 320 g/ha, three weeks after application
Summary of the method: as §3

green foxtail [8] = assay: Test Example 4: herbicidal effect by soil treatment (Table 19, symbol G); type: in vivo, green foxtail (Setaria viridis); conditions: amount of applied herbicide 320 g/ha
Summary of the method: as §1

rice flat sedge = assay: Test Example 3: herbicidal effect by foliage application, Wagner pot (Table 18, symbol E); type: in vivo, rice flat sedge (Cyperus iria); conditions: 320 g/ha
Summary of the method: as §4

velvetleaf [9] = assay: Test Example 5: herbicidal effect by foliage application, plastic box (Table 20, symbol M); type: in vivo, velvetleaf (Abutilon theophrasti); conditions: foliage application, 320 g/ha, three weeks after application
Summary of the method: as §3

redroot pigweed [10] = assay: Test Example 5: herbicidal effect by foliage application, plastic box (Table 20, symbol N); type: in vivo, redroot pigweed (Amaranthus retroflexus); conditions: foliage application, 320 g/ha, three weeks after application
Summary of the method: as §3

Japanese bulrush = assay: Test Example 1: herbicidal activity, application before weed generation under submerged conditions (Table 16, symbol B); type: in vivo, Japanese bulrush (Schoenoplectus juncoides); conditions: 320 g/ha applied herbicide
Summary of the method: as §2

green foxtail [11] = assay: Test Example 5: herbicidal effect by foliage application, plastic box (Table 20, symbol G); type: in vivo, green foxtail (Setaria viridis); conditions: foliage application, 320 g/ha, three weeks after application
Summary of the method: as §3

redroot pigweed [12] = assay: Test Example 4: herbicidal effect by soil treatment (Table 19, symbol N); type: in vivo, redroot pigweed (Amaranthus retroflexus); conditions: amount of applied herbicide 320 g/ha
Summary of the method: as §1

false cleavers [13] = assay: Test Example 4: herbicidal effect by soil treatment (Table 19, symbol Q); type: in vivo, false cleavers (Galium spurium); conditions: amount of applied herbicide 320 g/ha
Summary of the method: as §1

windgrass [14] = assay: Test Example 4: herbicidal effect by soil treatment (Table 19, symbol L); type: in vivo, windgrass (Apera spica-venti); conditions: amount of applied herbicide 320 g/ha
Summary of the method: as §1

Italian ryegrass [15] = assay: Test Example 5: herbicidal effect by foliage application, plastic box (Table 20, symbol K); type: in vivo, Italian ryegrass (Lolium multiflorum); conditions: foliage application, 320 g/ha, three weeks after application
Summary of the method: as §3

lambsquarters [16] = assay: Test Example 4: herbicidal effect by soil treatment (Table 19, symbol O); type: in vivo, lambsquarters (Chenopodium album); conditions: amount of applied herbicide 320 g/ha
Summary of the method: as §1

oval-leafed pondweed = assay: Test Example 1: herbicidal activity, application before weed generation under submerged conditions (Table 16, symbol C); type: in vivo, oval-leafed pondweed (Monochoria vaginalis); conditions: 320 g/ha applied herbicide
Summary of the method: as §2

southern crabgrass [17] = assay: Test Example 4: herbicidal effect by soil treatment (Table 19, symbol F); type: in vivo, southern crabgrass (Digitaria ciliaris); conditions: amount of applied herbicide 320 g/ha
Summary of the method: as §1

barnyard grass [18] = assay: Test Example 5: herbicidal effect by foliage application, plastic box (Table 20, symbol H); type: in vivo, barnyard grass (Echinochloa crus-galli); conditions: foliage application, 320 g/ha, three weeks after application
Summary of the method: as §3

southern crabgrass [19] = assay: Test Example 5: herbicidal effect by foliage application, plastic box (Table 20, symbol F); type: in vivo, southern crabgrass (Digitaria ciliaris); conditions: foliage application, 320 g/ha, three weeks after application
Summary of the method: as §3

windgrass [20] = assay: Test Example 5: herbicidal effect by foliage application, plastic box (Table 20, symbol L); type: in vivo, windgrass (Apera spica-venti); conditions: foliage application, 320 g/ha, three weeks after application
Summary of the method: as §3

velvetleaf [21] = assay: Test Example 4: herbicidal effect by soil treatment (Table 19, symbol M); type: in vivo, velvetleaf (Abutilon theophrasti); conditions: amount of applied herbicide 320 g/ha
Summary of the method: as §1

chickweed [22] = assay: Test Example 5: herbicidal effect by foliage application, plastic box (Table 20, symbol P); type: in vivo, common chickweed (Stellaria media); conditions: foliage application, 320 g/ha, three weeks after application
Summary of the method: as §3

false cleavers [23] = assay: Test Example 5: herbicidal effect by foliage application, plastic box (Table 20, symbol Q); type: in vivo, false cleavers (Galium spurium); conditions: foliage application, 320 g/ha, three weeks after application
Summary of the method: as §3

persian speedwell [24] = assay: Test Example 5: herbicidal effect by foliage application, plastic box (Table 20, symbol R); type: in vivo, Persian speedwell (Veronica persica); conditions: foliage application, 320 g/ha, three weeks after application
Summary of the method: as §3

chickweed [25] = assay: Test Example 4: herbicidal effect by soil treatment (Table 19, symbol P); type: in vivo, common chickweed (Stellaria media); conditions: amount of applied herbicide 320 g/ha
Summary of the method: as §1

Italian ryegrass [26] = assay: Test Example 4: herbicidal effect by soil treatment (Table 19, symbol K); type: in vivo, Italian ryegrass (Lolium multiflorum); conditions: amount of applied herbicide 320 g/ha
Summary of the method: as §1

persian speedwell [27] = assay: Test Example 4: herbicidal effect by soil treatment (Table 19, symbol R); type: in vivo, Persian speedwell (Veronica persica); conditions: amount of applied herbicide 320 g/ha
Summary of the method: as §1

Compound | herbicidal effect rating, I: wild oat (wild oat [1]) | Herbicidal effect on A: late watergrass (grade 0-5) (late watergrass) | herbicidal effect rating, J: blackgrass (blackgrass [2]) | herbicidal effect grade, O: lambsquarters (lambsquarters [3]) | herbicidal effect on D (Chinese sprangletop), rating 0-5 (Chinese sprangletop) | herbicidal effect grade, J: blackgrass (blackgrass [4]) | herbicidal effect on H (barnyard grass), rating 0-5 (barnyard grass [5]) | herbicidal effect rating, H: barnyard grass (barnyard grass [6]) | herbicidal effect grade, I: wild oat (wild oat [7]) | herbicidal effect rating, G: green foxtail (green foxtail [8]) | herbicidal effect on E (rice flat sedge), rating 0-5 (rice flat sedge) | herbicidal effect grade, M: velvetleaf (velvetleaf [9]) | herbicidal effect grade, N: redroot pigweed (redroot pigweed [10]) | Herbicidal effect on B: Japanese bulrush (grade 0-5) (Japanese bulrush) | herbicidal effect grade, G: green foxtail (green foxtail [11]) | herbicidal effect rating, N: redroot pigweed (redroot pigweed [12]) | herbicidal effect rating, Q: false cleavers (false cleavers [13]) | herbicidal effect rating, L: windgrass (windgrass [14]) | herbicidal effect grade, K: Italian ryegrass (Italian ryegrass [15]) | herbicidal effect rating, O: lambsquarters (lambsquarters [16]) | other results
COc1ccc(-c2sc3ccccc3c2-c2c(O)c(C)nn(C)c2=O)cc1F [1-049] | 0 (Herbicidal rate of 5% or less (almost no effect)) | 4 (Herbicidal rate of 70% or more and less than 90%) | 0 (Herbicidal rate of 5% or less (almost no effect)) | 3 (Herbicidal rate of 40% or more and less than 70%) | 3 (Herbicidal rate of 40% or more and less than 70%) | 0 (Herbicidal rate of 5% or less (almost no effect)) | 5 (Herbicidal rate of 90% or more (almost completely withered)) | 3 (Herbicidal rate of 40% or more and less than 70%) | 1 (Herbicidal rate of 5% or more and less than 20%) | 3 (Herbicidal rate of 40% or more and less than 70%) | 5 (Herbicidal rate of 90% or more (almost completely withered)) | 5 (Herbicidal rate of 90% or more (almost completely withered)) | 3 (Herbicidal rate of 40% or more and less than 70%) | 1 (Herbicidal rate of 5% or more and less than 20%) | 4 (Herbicidal rate of 70% or more and less than 90%) | 4 (Herbicidal rate of 70% or more and less than 90%) | 0 (Herbicidal rate of 5% or less (almost no effect)) | 0 (Herbicidal rate of 5% or less (almost no effect)) | 4 (Herbicidal rate of 70% or more and less than 90%) | 3 (Herbicidal rate of 40% or more and less than 70%) | Herbicidal effect on C: oval-leafed pondweed (grade 0-5) (oval-leafed pondweed): 0 (Herbicidal rate of 5% or less (almost no effect)); herbicidal effect rating, F: southern crabgrass (southern crabgrass [17]): 2 (Herbicidal rate of 20% or more and less than 40%); herbicidal effect grade, H: barnyard grass (barnyard grass [18]): 4 (Herbicidal rate of 70% or more and less than 90%); herbicidal effect grade, F: southern crabgrass (southern crabgrass [19]): 4 (Herbicidal rate of 70% or more and less than 90%); herbicidal effect grade, L: windgrass (windgrass [20]): 0 (Herbicidal rate of 5% or less (almost no effect)); herbicidal effect rating, M: velvetleaf (velvetleaf [21]): 0 (Herbicidal rate of 5% or less (almost no effect)); herbicidal effect grade, P: chickweed (chickweed [22]): 5 (Herbicidal rate of 90% or more (almost completely withered)); herbicidal effect grade, Q: false cleavers (false cleavers [23]): 3 (Herbicidal rate of 40% or more and less than 70%); herbicidal effect grade, R: persian speedwell (persian speedwell [24]): 5 (Herbicidal rate of 90% or more (almost completely withered)); herbicidal effect rating, P: chickweed (chickweed [25]): 3 (Herbicidal rate of 40% or more and less than 70%); herbicidal effect rating, K: Italian ryegrass (Italian ryegrass [26]): 0 (Herbicidal rate of 5% or less (almost no effect)); herbicidal effect rating, R: persian speedwell (persian speedwell [27]): 4 (Herbicidal rate of 70% or more and less than 90%)
COc1ccc(F)c(-c2sc3ccccc3c2-c2c(O)c(C)nn(C)c2=O)c1 [1-053] | 0 (Herbicidal rate of 5% or less (almost no effect)) | 3 (Herbicidal rate of 40% or more and less than 70%) | 0 (Herbicidal rate of 5% or less (almost no effect)) | 4 (Herbicidal rate of 70% or more and less than 90%) | 0 (Herbicidal rate of 5% or less (almost no effect)) | 2 (Herbicidal rate of 20% or more and less than 40%) | 3 (Herbicidal rate of 40% or more and less than 70%) | 1 (Herbicidal rate of 5% or more and less than 20%) | 3 (Herbicidal rate of 40% or more and less than 70%) | 3 (Herbicidal rate of 40% or more and less than 70%) | 1 (Herbicidal rate of 5% or more and less than 20%) | 5 (Herbicidal rate of 90% or more (almost completely withered)) | 4 (Herbicidal rate of 70% or more and less than 90%) | 2 (Herbicidal rate of 20% or more and less than 40%) | 4 (Herbicidal rate of 70% or more and less than 90%) | 4 (Herbicidal rate of 70% or more and less than 90%) | 0 (Herbicidal rate of 5% or less (almost no effect)) | 0 (Herbicidal rate of 5% or less (almost no effect)) | 3 (Herbicidal rate of 40% or more and less than 70%) | 5 (Herbicidal rate of 90% or more (almost completely withered)) | Herbicidal effect on C: oval-leafed pondweed (grade 0-5) (oval-leafed pondweed): 1 (Herbicidal rate of 5% or more and less than 20%); herbicidal effect rating, F: southern crabgrass (southern crabgrass [17]): 2 (Herbicidal rate of 20% or more and less than 40%); herbicidal effect grade, H: barnyard grass (barnyard grass [18]): 3 (Herbicidal rate of 40% or more and less than 70%); herbicidal effect grade, F: southern crabgrass (southern crabgrass [19]): 3 (Herbicidal rate of 40% or more and less than 70%); herbicidal effect grade, L: windgrass (windgrass [20]): 3 (Herbicidal rate of 40% or more and less than 70%); herbicidal effect rating, M: velvetleaf (velvetleaf [21]): 2 (Herbicidal rate of 20% or more and less than 40%); herbicidal effect grade, P: chickweed (chickweed [22]): 5 (Herbicidal rate of 90% or more (almost completely withered)); herbicidal effect grade, Q: false cleavers (false cleavers [23]): 3 (Herbicidal rate of 40% or more and less than 70%); herbicidal effect grade, R: persian speedwell (persian speedwell [24]): 5 (Herbicidal rate of 90% or more (almost completely withered)); herbicidal effect rating, P: chickweed (chickweed [25]): 5 (Herbicidal rate of 90% or more (almost completely withered)); herbicidal effect rating, K: Italian ryegrass (Italian ryegrass [26]): 3 (Herbicidal rate of 40% or more and less than 70%); herbicidal effect rating, R: persian speedwell (persian speedwell [27]): 3 (Herbicidal rate of 40% or more and less than 70%)
